{"source": "paper PMC11613490", "about": "“Cyclophostin and Cyclipostins analogues counteract macrolide-induced resistance mediated by erm(41) in Mycobacterium abscessus” (Journal of Biomedical Science, 2024)", "assay_in_all_cases": "microbe, parasite or virus in culture", "key": {"[1]": {"tested_on": "M. abscessus S (control, untreated)", "design": "species or system Mycobacterium abscessus S; broth microdilution / checkerboard MIC in 7H9-S OADC, OD600, more than 90% growth inhibition", "conditions": "Mycobacteroides abscessus, read-out: MIC, single drug"}, "[2]": {"tested_on": "M. abscessus S reference strain (Control, untreated)", "conditions": "Mycobacteroides abscessus, read-out: MIC (0 µg/mL CyC, alone)", "protocol": "Synergistic activities were tested in 96-well microplates by the checkerboard assay in Middlebrook 7H9-S^OADC broth and using microdilution method [47]. MIC of the antibiotics were determined in 96 well flat-bottom Nunclon Delta Surface microplates with lid (Thermo-Fisher Scientific, ref. 167008) using optical density to assess growth. Log-phase bacteria were diluted to a cell density of 5 × 10^6 cells/mL in 7H9-S^OADC medium. Then, 100 µL of this bacterial suspension (5 × 10^5 cells final per well) was added to each well containing 100 µL of the 7H9-S^OADC medium, serial two-fold dilutions of the selected antibiotics or controls to a final volume of 200 µL. In addition, wells containing 200 µL of 7H9-S^OADC medium only were used as sterility/background controls, whereas wells containing 100 µg/mL kanamycin (Euromedex) was used as positive control for growth inhibition. Plates were incubated at 37 °C for 4 to 5 days. The optical density (OD) at 600 nm was quantified using a Tecan Spark 10 M™ multimode microplate reader (Tecan Group Ltd., France). Relative growth units were defined as: RGU% = (test well OD600nm/mean OD600nm of growth control wells) ×100. For each condition, three biological replicates were performed. The MIC of each drug was defined as the lowest drug concentration that inhibited more than 90% of the bacterial growth."}, "[3]": {"tested_on": "M. abscessus S reference strain (Control, untreated)", "design": "species or system Mycobacterium abscessus; broth microdilution in 7H9-OADC, OD600 growth, MIC defined as 90% growth inhibition", "conditions": "Mycobacteroides abscessus, single drug, read-out: MIC (0 µg/mL CyC, alone)"}}, "note": "Read-outs that look alike come from different tables or passages of the source.", "data": [{"compound": "CC[C@H]1OC(=O)[C@H](C)[C@@H](O[C@H]2C[C@@](C)(OC)[C@@H](O)[C@H](C)O2)[C@H](C)[C@@H](O[C@@H]2O[C@H](C)C[C@H](N(C)C)[C@H]2O)[C@](C)(O)C[C@@H](C)CN(C)[C@H](C)[C@@H](O)[C@]1(C)O", "note": "[AZM, azithromycin]", "values": [{"measurement": "MIC", "setting": "[1]", "result": 6, "unit": "µg/mL"}]}, {"compound": "CC[C@H]1OC(=O)[C@H](C)[C@@H](O[C@H]2C[C@@](C)(OC)[C@@H](O)[C@H](C)O2)[C@H](C)[C@@H](O[C@@H]2O[C@H](C)C[C@H](N(C)C)[C@H]2O)[C@](C)(OC)C[C@@H](C)C(=O)[C@H](C)[C@@H](O)[C@]1(C)O", "note": "[CLR, clarithromycin]", "values": [{"measurement": "MIC", "setting": "[1]", "result": 0.6, "unit": "µg/mL"}]}, {"compound": "CCCCCCCCCCCCCCCCOP1(=O)OCCC(C(=O)OC)=C(C)O1", "note": "(stereo not shown) [CyC17]", "values": [{"measurement": "MIC", "setting": "[2]", "result": 3.2, "unit": "µg/mL"}]}, {"compound": "CCCCCCCCCCCOP1(=O)OCCC(C(=O)OC)=C(C)O1", "note": "(stereo not shown) [CyC31]", "values": [{"measurement": "MIC", "setting": "[3]", "result": 20, "unit": "µg/mL"}]}]}
